The conditions of series [1]: for water adsorbed (hygroscopicity): content to which the form adsorbs water; for water adsorbed (hygroscopicity) / hygroscopicity: dihydrochloride.
Series [2] has as its system sickle cell transgenic (PS) mice. The conditions noted are these: administration to sickle cell transgenic (PS) mice; cited from earlier work.
The test system of a further series is beagles. The conditions noted are these: dog, in vivo. How it is done: This study evaluated the cardiovascular effects of high doses of 6R-BH4 in combination with the PDE5 inhibitor sildenafil citrate in vivo. Eight male research nonnaïve and naïve purebred beagles were dosed in a double Latin square crossover design as described in the following table. All animals were dosed by oral gavage. Test articles were administered at a dose volume of 5 mL/kg (for a total volume of 10 mL/kg for the combination dose); control animals were dosed at a dose volume of 10 mL/kg. 6R-BH4 (sapropterin dihydrochloride) provided as 300 mg tablets (100 mg active 6R-BH4/tablet) stored at room temperature with desiccant.
At initiation of treatment, the animals were approximately 7 to 10 months old, and their body weights prior to dosing ranged from 7.8 to 12.0 kg.
At least 2 weeks prior to initiation of treatment, animals were fasted overnight, anesthetized, and an electrocardiogram (ECG) and blood pressure transmitter were implanted into the abdomen and sutured to the abdominal wall. The blood pressure catheter was placed in an artery and advanced to the abdominal aorta. Animals were checked twice daily (a.m. and p.m.) for mortality, abnormalities, and signs of pain and distress. Additional findings were recorded as observed.
Detailed observations were taken three times during the predose phase (including the day before dosing) and on Days 3 and 10 of the dosing phase. For each dosing day, ECG and pressure measurements were recorded for at least 90 minutes prior to dosing, continuously for at least 8 hours after dosing, and then for one period of at least 15 minutes in duration each hour through at least 24 hours postdose. Blood pressure measurements included systolic, diastolic, and mean arterial pressures and pulse pressure (systolic-diastolic). […]
Quantitative evaluation of ECG measurements, including RR interval, QT, and rate-corrected QT (QTc, using Fridericia's method), were done.
Positive inotropic effects (+dP/dtmax) and heart rate were calculated from a left ventricular pressure signal predose and approximately 2, 4, 8, 12, and 24 hours postdose. […]

For a further series, the system named is hypertensive patients. The experiment in a line: Study 2: dose-response of oral BH4 on blood pressure and heart rate, after 2-week vitamin C run-in. The format is in vivo, human. How it is done: Prior studies have used parenteral infusion of BH4 or a single oral dose; thus it was not known whether long-term oral BH4 over a period of days to weeks would result in a sustained improvement in endothelial dysfunction. […] Two studies were conducted to investigate the duration of action of oral BH4 and the response of hypertensive subjects to different doses of BH4. […] Patients were continued on their current anti-hypertensive therapy which remained unchanged. […] BH4 powder was obtained from Schircks Laboratories (Jona, Switzerland). BH4 when administered with vitamin C was compounded with vitamin C at a ratio of 1 mg of vitamin C/1 mg BH4 into appropriate sized capsules. Subjects were advised to keep the pills in a freezer or refrigerator. For both study 1 and study 2, the primary end point after statistical analysis was a reduction of systolic, mean and diastolic BP during BH4 therapy. Secondary end points included improvement of endothelial function as FMD. Linear mixed effects models for repeated measures data were used to analyze change in BP from baseline to end of treatment period and differences in change between 100 mg and 200 mg dose groups. A quadratic term for week was included in the model to account for non-linear trends over the treatment period. Dose, week and week squared were the main effect terms in the model; dose by week and dose by week squared were the interaction terms in the model. Significant interaction terms indicate a difference in the pattern of change between the two dose groups. FMD data was analyzed using the two-tailed student t-test. […] Of the 20 subjects who qualified for participation, 4 were excluded during the run-in phase because of inability to return for follow-up appointments. There were 6 male subjects, mean age 59.5±8.3 years. Eight subjects received 200 mg b.i.d (twice daily) of oral BH4 and 8 received 100 mg b.i.d. of oral BH4. […] Because BH4 was compounded with vitamin C in a 1:1 ratio, all subjects received vitamin C, at their assigned BH4 dose, twice a day during the first 2-week period. After this 2-week run-in period, subjects received BH4 only at their assigned dosage for the next 4 weeks. Weekly heart rate and BP measurements were made during the run-in period and treatment period. Mean blood pressure was calculated as: (SBP+2×DBP)/3. BH4 was then stopped and follow-up was performed at 1 and 4 weeks after discontinuation where BP and heart rate measurements were made. Routine chemistries and LFT's were drawn prior to initiation of medication, at the end of BH4 therapy and one month after discontinuation of BH4.

Counter-ions that a name gives are not always drawn.

With `C[C@H](O)[C@H](O)[C@H]1CNc2nc(N)[nH]c(=O)c2N1.Cl.Cl` [form A, (6R)-L-erythro-tetrahydrobiopterin dihydrochloride], in series [1], the “water adsorbed (hygroscopicity)” value is “about 3 percent by weight” and the hygroscopicity result is on record as “slightly hygroscopic”. Also, the “phase equilibration test of suspensions” value in series [1] (tetrahydrofuran five days or tertiary-butyl methyl ether 18 hours, under nitrogen at room temperature, then filtration and air-drying) was “unchanged”.

Take `C[C@H](O)[C@H](O)[C@H]1CNc2nc(N)[nH]c(=O)c2N1.Cl.Cl` [form B, (6R)-L-erythro-tetrahydrobiopterin dihydrochloride]: in series [1], the hygroscopicity result is “slightly hygroscopic”.

As to `C[C@H](O)[C@H](O)[C@H]1CNc2nc(N)[nH]c(=O)c2N1.Cl.Cl` [form C, (6R)-L-erythro-tetrahydrobiopterin dihydrochloride], in series [1], the hygroscopicity result is “slightly hygroscopic”.

As for `C[C@H](O)[C@H](O)[C@H]1CNc2nc(N)[nH]c(=O)c2N1.Cl.Cl` [form D, (6R)-L-erythro-tetrahydrobiopterin dihydrochloride], in series [1], the hygroscopicity result is “slightly hygroscopic”.

Consider `C[C@H](O)[C@H](O)[C@H]1CNc2nc(N)[nH]c(=O)c2N1.Cl.Cl` [form E, (6R)-L-erythro-tetrahydrobiopterin dihydrochloride], for which the hygroscopicity entry in series [1] is recorded as “non-hygroscopic”.

For `C[C@H](O)[C@H](O)[C@H]1CNc2nc(N)[nH]c(=O)c2N1.Cl.Cl` [form F, (6R)-L-erythro-tetrahydrobiopterin dihydrochloride], in series [1], the “water adsorbed (hygroscopicity)” value was “about 3 percent by weight” and the hygroscopicity entry was “slightly hygroscopic”.

For the compound `C[C@H](O)[C@H](O)[C@H]1CNc2nc(N)[nH]c(=O)c2N1.Cl.Cl` [form J, (6R)-L-erythro-tetrahydrobiopterin dihydrochloride], the hygroscopicity entry in series [1] is reported as “slightly hygroscopic”.

For `C[C@H](O)[C@H](O)[C@H]1CNc2nc(N)[nH]c(=O)c2N1.Cl.Cl` [form K, (6R)-L-erythro-tetrahydrobiopterin dihydrochloride], in series [1], the “water adsorbed (hygroscopicity)” value is recorded as “about 2.0 percent by weight” and the hygroscopicity result was “slightly hygroscopic”.

Regarding `C[C@H](O)C(=O)C1=Nc2c(nc(N)[nH]c2=O)NC1` [sepiapterin], the blood cell adhesion entry in series [2] was “attenuation”.

As for `CCCc1nn(C)c2c(=O)[nH]c(-c3cc(S(=O)(=O)N4CCN(C)CC4)ccc3OCC)nc12` [sildenafil citrate], in the series with beagles, the Arterial pulse pressure entry is “significantly increased” and the Heart rate entry was “significantly increased”.

Regarding `O=C1O[C@H]([C@@H](O)CO)C(O)=C1O` [vitamin C, ascorbic acid, reference compound], in the series on hypertensive patients (Study 2, 16 subjects, after 2 weeks of vitamin C run-in, 84±13 before, p=ns), the “diastolic arterial BP” value is 86±11 mmHg. Moreover, the “mean arterial BP” value in the series on hypertensive patients (Study 2, 16 subjects, after 2 weeks of vitamin C run-in, 106±10 before, p=ns) worked out at 106±12 mmHg. In addition, in the series on hypertensive patients (Study 2, 16 subjects, after 2 weeks of vitamin C run-in, 152±11 before, p=ns), the “systolic arterial BP” value is on record as 148±19 mmHg. In the series on hypertensive patients (Study 2, vitamin C twice a day for 2 weeks, either group), the “change in heart rate or BP during the run-in phase” value was “no significant change”.
